Source: PubChem BioAssay AID2305 (GlaxoSmithKline (GSK), 2010)
Values joined by “and” are separate entries in the source; they are usually repeats but may differ in a detail not shown here. Equal entries are not always repeated.

Test system: P. falciparum 3D7 growth, pLDH absorbance
Experiment: blood-stage malaria parasite growth potency – strain 3D7, dose response (AID 2305)

Point of comparison: `O=C(Nc1cccc(Cl)c1)c1cnc(N2CCN(c3ccncc3)CC2)c(Cl)c1`, IC50 960 nM. Against it:
- CC(C)Oc1ccc2ccccc2c1CNCCCCCCNCc1c(OC(C)C)ccc2ccccc12 — 1.6-fold lower, 610 nM
- O=C(c1cc2ccccc2o1)N1CCc2cc3nccc(N4CCN5CCC[C@H]5C4)c3cc21 — within 1.5-fold, 810 nM
- CCC(=O)N(c1ccccc1)C1CCN(CCCC(NC(=O)Nc2cc(C(F)(F)F)cc(C(F)(F)F)c2)c2ccc(Cl)c(Cl)c2)CC1 (stereo unspecified) — within 1.5-fold, 670 nM
- CCCCCn1c(Sc2ccc(C#N)c([N+](=O)[O-])c2)nnc1-c1cccc(Cl)c1 — within 1.5-fold, 770 nM
- O=C(NC1CCN(Cc2ccccc2)CC1)c1cccc(-c2nc3ccc(Cl)cc3[nH]2)c1 — within 1.5-fold, 860 nM
- COc1ccc(CNCc2cccc(-c3ccc(-c4nc5ccc(C(F)(F)F)cc5[nH]4)cc3)c2)cc1 — 7.4-fold lower, 130 nM
- CCOC(=O)c1c(C)n(-c2ccccc2)c2ccc(OC(=O)c3ccc(S(=O)(=O)N(CC)CC)cc3)cc12 — within 1.5-fold, 750 nM
- COc1ccc(CCNCc2ccc3c(C)cc(N)nc3c2)cc1 — 1.7-fold lower, 570 nM
- CCNc1cc(C(=O)N[C@@H](Cc2ccccc2)[C@H](O)CN[C@@H]2CCc3ccccc32)cc(N2CCCCS2(=O)=O)c1 — 1.7-fold lower, 550 nM
- CN(Cc1ccc(C#N)cc1)C1CCN(c2cc(NC(=O)c3cccc(F)c3)ccn2)CC1 — 1.8-fold higher, 1750 nM
- COc1ccc(-c2csc(C(=O)NC3CCC(N4CCC(c5ccccc5C)CC4)CC3)c2)cc1 (stereo unspecified) — 2.5-fold lower, 380 nM
- CCCCC(CC)C(=O)C(NC(=O)[C@H](CSC(c1ccccc1)(c1ccccc1)c1ccccc1)NC(=O)OC(C)(C)C)C(=O)OC (stereo partly specified) — within 1.5-fold, 1020 nM
- CCCC1(NC[C@@H](O)[C@H](Cc2ccccc2)NC(=O)c2cc(NCC)cc(N3CCCCS3(=O)=O)c2)CCCCC1 — 3.8-fold lower, 250 nM
- Cc1nc(NCCCn2ccnc2)cc(-c2cncc(-c3ccc(OC(F)(F)F)cc3)c2)n1 — 1.5-fold lower, 620 nM
- N#Cc1ccc2c(c1)CCN(CCC1CCC(NC(=O)/C=C/c3cccc4ccccc34)CC1)CC2 (stereo unspecified) — within 1.5-fold, 730 nM
- Cc1cccc2[nH]c(-c3ccc(-c4cccc(CN5CCC(CCN6CCCCC6)CC5)c4)s3)nc12 — 6.9-fold lower, 140 nM
- Cc1[nH]c(C)c(-c2ccc(-c3ccc(OC(F)(F)F)cc3)nc2)c(=O)c1Br — 3.8-fold lower, 250 nM
- O=C(Nc1ccc(Br)cc1)N1CCC(n2c(-c3ccccc3)nc3cccnc32)CC1 — within 1.5-fold, 760 nM
- CC(C)c1nc(N2CCN(C(=S)NCc3ccccc3)CC2)c(C#N)c2c1COC(C)(C)C2 — 6.9-fold lower, 140 nM
- CC(Oc1ccc(Cl)cc1Cl)c1nc(-c2ccc(NC(=O)c3ccco3)cc2)no1 (stereo unspecified) — within 1.5-fold, 900 nM
- COc1ccc2nccc([C@@H](O)CN3CCC(NC(=O)Cc4ccc(Br)c5ccccc45)CC3)c2c1 — within 1.5-fold, 820 nM
- CC(=O)Oc1c(Br)c(C)nc(C)c1-c1ccc(Oc2ccc(OC(F)(F)F)cc2)cc1 — 7.4-fold lower, 130 nM
- CCCC[C@@H](C(=O)NCCc1ccc(Cl)cc1)N1C(=O)CCC1C(=O)Nc1ccc(Cl)c(Cl)c1 (stereo partly specified) — within 1.5-fold, 870 nM
- O=C(O)C1CC(=O)N(c2ccc(Cl)cc2)C1 (stereo unspecified) — 4.4-fold lower, 220 nM
- COc1ccc2nccc([C@H](O)CN3CCC(NCc4ccc5c(c4C)OCCO5)CC3)c2n1 — within 1.5-fold, 890 nM
- Cc1cc(CN2CCC(Nc3ncc(-c4ccsc4)c4nc(C(F)(F)F)ccc34)CC2)no1 — within 1.5-fold, 1100 nM
- CC(=O)N(C)c1ccc(C(=O)Nc2cccc(-c3cccc(-c4nc5c(C)cccc5[nH]4)c3)c2)cc1 — 1.5-fold lower, 620 nM
- CCN(CC)c1ccc(C(=O)Cn2ccc(=N)cc2)cc1 — within 1.5-fold, 1000 nM
- FC(F)(F)c1ccc2c(NN=Cc3cccc(Cl)c3)ccnc2c1 — within 1.5-fold, 840 nM
- CC(C)(C)Nc1cc(C2CC2)nc(-c2ccccn2)n1 — within 1.5-fold, 680 nM
- O=C(NC1CCCC1)c1cc2c(=O)n3ccccc3nc2nc1NCCc1ccccc1 — within 1.5-fold, 650 nM
- NC1CCN(Cc2ccc(-c3cccc(-c4nc5ccccc5[nH]4)c3)cc2)C1 (stereo unspecified) — within 1.5-fold, 850 nM
- CCCCCn1c(Sc2ccc(C#N)c([N+](=O)[O-])c2)nnc1-c1ccccc1 — within 1.5-fold, 860 nM
- CN1CCC(N2CCN(CCOc3cc(NC(=O)/C=C/c4ccccc4Cl)ccc3Br)CC2)CC1 — 2.7-fold lower, 360 nM
- Cc1cccc2[nH]c(-c3ccc(-c4ccc(NC(=O)Nc5ccc(Cl)c(Cl)c5)cc4)cc3)nc12 — within 1.5-fold, 830 nM
- CN1CC=C(C=Cc2c[nH]c3ccccc23)CC1 — within 1.5-fold, 1340 nM
- CC(C)(C)NC(=O)C(c1ccc(F)cc1)N(C(=O)c1ccc(CN2CCOCC2)o1)c1ccc(C2CCCCC2)cc1 (stereo unspecified) — within 1.5-fold, 920 nM
- COc1cccc(C2CCCN(CCCCNC(=O)c3ccc(NC(=O)c4ccc(Cl)cc4)cc3)C2)c1 (stereo unspecified) — within 1.5-fold, 860 nM
- CN1CCN(c2ccc(Nc3ccnc4ccc(-c5ccccc5)cc34)cc2)CC1 — 11-fold lower, 90 nM
- O=C(NC1CCN(Cc2ccccc2)CC1)c1csc2nc(-c3ccc(Cl)cc3)cn12 — within 1.5-fold, 910 nM
- COc1cc2ncnc(Nc3ccc(OCc4ccccc4Br)c(Cl)c3)c2cc1OC — within 1.5-fold, 1280 nM
- CS(=O)(=O)c1ccc(-c2nc(NCC3CCCCC3)cc(C(F)(F)F)n2)cc1 — within 1.5-fold, 670 nM
- CC1(C)N=C(N)NC(NOCc2ccc(Cl)c(Cl)c2)=N1 — 4.2-fold lower, 230 nM
- Cc1nc(-c2nc(N3CCOCC3)ncc2-c2ccsc2)sc1C — 3-fold lower, 320 nM
- CC(=O)N(C)/N=C/[C@H](CCc1ccccc1)NC(=O)[C@H](CC(C)C)NC(=O)c1cccc(OCCN2CCOCC2)c1 — 2.9-fold lower, 330 nM
- O=C(/C=C/c1ccc(Cl)c(Cl)c1)N1CCC(CN2CCC(c3c[nH]c4ccc(NS(=O)(=O)c5cccs5)cc34)CC2)CC1 — 4.4-fold lower, 220 nM
- O=C(Nc1ccc2nc3n(c(=O)c2c1)CCCCC3)C(=O)N1CCN(c2ccc(F)cc2)CC1 — 1.5-fold lower, 640 nM
- CC(C)C[C@H](NC(=O)c1cc2ccccc2s1)C(=O)N[C@H]1CCN(Cc2ccc(I)c(OCCN3CCCC3)c2)C1 — within 1.5-fold, 1350 nM
- O=C(Cc1ccccc1)NC(CCN1CCC(O)(c2cccc(C(F)(F)F)c2)CC1)c1ccc(Cl)c(Cl)c1 (stereo unspecified) — within 1.5-fold, 860 nM
- Cc1cc(N)c2cc(NC(=O)/C=C/c3ccccc3Cl)ccc2n1 — 2.4-fold lower, 400 nM
- COc1ccccc1NC(=O)Nc1cccc(-c2cccc(-c3nc4c(C)cccc4[nH]3)c2)c1 — 9.6-fold lower, 100 nM
- COc1ccc2ncc(Cl)c(CCN3CC[C@@H](CNCc4cc5c(cn4)OCS5)C3)c2n1 — within 1.5-fold, 810 nM
- O=[N+]([O-])c1cccc(CNCC2CCN(Cc3ccc(Cl)c(Cl)c3)CC2)c1 — within 1.5-fold, 910 nM
- CNC(=O)c1cnc(Nc2ccc(N3CCN(C)CC3)cc2)nc1Nc1ccccc1OC — within 1.5-fold, 930 nM
- O=C(/C=C/c1ccc(Cl)c(Cl)c1)NC1CCC(CN2CCC(c3coc4ccccc34)CC2)CC1 (stereo unspecified) — within 1.5-fold, 830 nM
- CC(C)C(C(=O)Nc1ccc2c(c1)OCO2)c1ccc(Cl)cc1 (stereo unspecified) — within 1.5-fold, 720 nM
- Cc1cc(N2CCCC2)nc(Nc2ccc(NC(=O)C(C)C)cc2)n1 — within 1.5-fold, 1100 nM
- CCN(CC)CCCCNc1cc(-c2[nH]c(C(C)(C)C)nc2-c2ccc3cc(OC)ccc3c2)ccn1 — 1.8-fold lower, 530 nM
- CC[C@H]1CN2CC[C@@H]1C[C@H]2[C@H](O)c1cc(-c2cccnc2)nc2ccc(OC)cc12 — 24-fold lower, 40 nM
- O=C1c2cc(I)ccc2SC1c1ccccc1 (stereo unspecified) — within 1.5-fold, 820 nM
- COC(C(=O)OCCC1CCCN1C)(c1ccccc1)c1ccccc1 (stereo unspecified) — within 1.5-fold, 970 nM
- C#CCNCc1ccc(-c2cccc(-c3nc4c(C)cccc4[nH]3)c2)cc1 — within 1.5-fold, 820 nM
- Cc1cc(N[C@@H](Cc2ccccc2)C(=O)NCCOc2ccccc2)nc(NCC2CCCCC2)n1 — within 1.5-fold, 850 nM
- CCn1cc(CN2C(=O)C(c3ccccc3)(c3ccccc3)N=C2N)cn1 — within 1.5-fold, 820 nM
- C1=CN(Cc2ccccc2)C=CC1=C1C=Nc2ccccc21 — within 1.5-fold, 760 nM
- CN(C)C(CNC(=O)c1cc(-c2ccncc2)c(-c2ccc(Cl)c(O)c2)o1)c1ccccc1 (stereo unspecified) — within 1.5-fold, 840 nM
- O=C(NCCCCCN1CCC(c2c[nH]c3ccccc23)CC1)Nc1ccc(Cl)c(Cl)c1 — within 1.5-fold, 920 nM
- Cc1ccccc1OCCCN1CCN(CC(c2ccc(F)cc2)N2CCN(C(C)C)CC2)CC1 (stereo unspecified) — within 1.5-fold, 1410 nM
- Cc1c(Cn2ncc(N3CCC(N)CC3)c(Cl)c2=O)cccc1NC(=O)Nc1ccc(-c2ccccc2)cc1 — within 1.5-fold, 700 nM
- Cc1sc(NC(=O)Cc2cccc(C(F)(F)F)c2)nc1-c1cccc(Cl)c1 — 2-fold lower, 470 nM
- NC(N)=NN=Cc1c2ccccc2c(Cl)c2cc(Cl)ccc12 — within 1.5-fold, 790 nM
- COc1ccc2ncc(F)c([C@@H](O)CN3CCC(NCc4cc(C#N)c5c(c4)CCO5)CC3)c2n1 — within 1.5-fold, 890 nM
- CCOc1ccc(Nc2cc(C)nc(Nc3ccc(OCC)cc3)n2)cc1 — within 1.5-fold, 870 nM
- COc1cc(-c2nc(-c3ccccc3)c(-c3ccccc3)[nH]2)ccc1OCCN(C)C — 3.2-fold lower, 300 nM
- O=C(NNC(=O)c1ccc(CCN2CCC(c3nc(COCC(F)(F)F)c(-c4ccc(F)cc4)o3)CC2)cc1)Nc1ccc(Oc2ccccc2)cc1 — within 1.5-fold, 710 nM
- N#Cc1ccc(CN2CCCN(Cc3cccc(NC(=O)c4ccc(-c5ccccc5)cc4)c3)CC2)cc1 — within 1.5-fold, 1020 nM
- CCCCNc1ccc(C(=O)NC2CCN(C[C@H](O)c3ccnc4ccc(OC)cc34)CC2)cc1 — 2.2-fold lower, 440 nM
- CC(=O)Nc1cccc(Nc2nccc(-c3c(-c4cccc(NC(=O)c5c(F)cccc5F)c4)nn4ncccc34)n2)c1 — 5.3-fold lower, 180 nM
- CN(C)CC(O)C(c1ccccc1)c1cccc(Br)c1 (stereo unspecified) — 6-fold lower, 160 nM
- CCOc1ccc(N(CC)S(=O)(=O)c2cc(Br)cc3c2N(C(=O)C2CC2)CC3)cc1 — 7.4-fold lower, 130 nM
- Cc1[nH]c(C)c(-c2ccc(-c3cccc(Cl)c3)nc2)c(=O)c1Br — 3-fold lower, 320 nM
- O=C(Nc1ccc(-c2nc3ccccc3[nH]2)cc1)c1ccc(N2CCCC2)c([N+](=O)[O-])c1 — within 1.5-fold, 680 nM
- O=C(/C=C/c1ccc(Cl)c(Cl)c1)NCCCCCN1CCC(NC(=O)Nc2ccc3c(c2)OCO3)CC1 — within 1.5-fold, 710 nM
- COc1ccc(Nc2nccc(-c3cccc(NC(=O)c4cc5cc(F)ccc5[nH]4)c3)n2)cc1 — within 1.5-fold, 1030 nM
- Cc1nc(C)c(CC(=O)Nc2ccc(-c3ccc(-c4nc5ccc(C(F)(F)F)cc5[nH]4)s3)cc2)s1 — within 1.5-fold, 1030 nM
- COc1ccc(C(=O)NCc2ccccc2-c2ccc(C(C)(C)C)cc2)cc1O — 9.6-fold lower, 100 nM
- c1ccc(Oc2ccc(Nc3ccnc4ccc(-c5ccccn5)cc34)cc2)cc1 — within 1.5-fold, 1100 nM
- CCCCCCc1cnc2nc(N)nc(N)c2c1C — 5.1-fold lower, 190 nM
- CCCC(=O)Nc1ccc(Cl)c(NC(=O)COc2cc(C)ccc2C(C)C)c1 — within 1.5-fold, 930 nM
- CN(Cc1ccc(-c2ccc(C(F)(F)F)cc2)cc1)C(=O)Cn1c(CCc2cccc(F)c2F)cc(=O)c2ccc(OCCCN3CCCCC3)cc21 — within 1.5-fold, 710 nM
- O=C(Nc1ccc(Cl)cc1)c1ccc(CN2CCCN(Cc3cccc(O)c3)CC2)cc1 — 2.5-fold lower, 390 nM
- Cc1cnccc1/C=C/c1cccc(OCCN2CCc3ccc(S(C)(=O)=O)cc3CC2)c1 — 3.6-fold lower, 270 nM
- O=C(Cn1c(CCc2cccc(F)c2F)nc(=O)c2cccnc21)N(Cc1ccc(-c2ccc(C(F)(F)F)cc2)cc1)C1CCN(C2CCSCC2)CC1 — 4.2-fold lower, 230 nM
- Fc1cccc(CNc2ncc(-c3ccsc3)c(-c3nccs3)n2)c1 — 4-fold lower, 240 nM

In the case of `COC(=O)c1sccc1NC(=S)NC1CCC(CN2CCC(c3c[nH]c4ccccc34)CC2)CC1` (stereo unspecified), the IC50 is reported as 920 nM and 570 nM.
